Test [1] has as its target influenza virus haemagglutinin (HA) monomer (Influenza A virus, UniProt P03437). The conditions noted are these: read-out: affinity for its receptor; cited from earlier work.
For test [2], the target named is Vc2CBMTD (two tandem CBMs of V. cholerae NanH sialidase, residues 25-216, SEQ ID NO: 2, fused to trimerisation domain of P. aeruginosa pseudaminidase, residues 333-438, SEQ ID NO: 6) (Vibrio cholerae serotype O1, UniProt A5F7A4). Kind of test: Surface plasmon resonance (Biacore T-100): binding to immobilized multivalent, biotinylated α-2,3-sialyllactose-PAA. Particulars: mean ± s.d. of three replicates. A general note: Surface plasmon resonance follows binding to a sensor surface in real time, without labels.
Source text: (§1) Tandem-repeat multivalent protein, Vc4CBM, based on the Family 40^31 sialic acid binding domain (CBM) of the nanH gene encoding the sialidase from V. cholerae, was generated using PCR-based cloning techniques as described previously^8. Oligomerisation of the CBM domain from V. cholerae nanH sialidase, and from S. pneumoniae nanA sialidase, using the trimerisation domain from the pseudaminidase protein from Pseudomonas aeruginosa was engineered as follows: the DNA fragments encoding the CBM of V. cholerae sialidase residues 25-216, and that of S. pneumoniae nanA sialidase residues 121-305, respectively, were modified at the 5′ and 3′ termini by PCR amplification using primer pairs (Table 3) to incorporate different restriction sites to link one or two copies of the CBM unit in tandem for subsequent ligation to the gene encoding the trimerization domain from P. aeruginosa pseudaminidase residues 333-438 (PaTD). The resulting fragments were cloned either into an appropriately digested pEHISTEV vector (for VcCBM fragments) or pEGFP-HISTEV vector (for SpCBM fragments) to create constructs designated as VcCBMTD, Vc2CBMTD, SpCBMTD and Sp2CBMTD, respectively (FIG. 1). […] All constructs were propagated in E. coli DH5a cells, and constructs were verified by DNA sequencing, before transforming the expression host E. coli BL21 Gold (DE3) for protein production.
(§2) Expression of engineered mCBMs was performed as described previously^8 with some modifications. Briefly, E. coli cells containing either His-tagged VcCBMs or GFP-His-tagged SpCBMs were lysed in a buffer containing PBS, 0.3M NaCl and 10 mM imidazole with DNAase (20 μg/ml) and protease (minus EDTA) inhibitor tablets (Roche). Clarified lysates were applied onto a HisTrap HP column, pre-charged with nickel (GE Healthcare) before elution of histidine-tagged CBMs using PBS containing 0.3 M NaCl and 250 mM imidazole. Removal of tag, unless otherwise stated, was performed by digestion in situ with TEV protease overnight before re-applying material to the nickel column. All mCBM proteins were further purified using size exclusion chromatography with a HiPrep 16/60 Sephacryl S200HR column (GE Healthcare) in PBS before using either a Vivapure S Maxi H (VcCBMs) or Q Maxi H (SpCBMs) column (Sartorius) to remove endotoxins. GFP-tagged proteins were also subjected to affinity chromatography and size exclusion chromatography as described above. […] Protein purity and size were verified by 12% SDS polyacrylamide gel electrophoresis and mass spectrometry. Purified mCBMs binding to sialic acid was verified by surface plasmon resonance (Biacore T-100, University of Edinburgh) using a streptavidin-coated biosensor chip immobilized with a multivalent, biotinylated α-2,3-sialyllactose-PAA (Glycotech) (Table 1).

The target of test [3] is Vc4CBM (tandem-repeat multivalent protein of four sialic acid binding domains of V. cholerae NanH sialidase, residues 25-216, SEQ ID NO: 2) (Vibrio cholerae, UniProt A5F7A4). The description is as above. The conditions noted are these: mean ± s.d. of three replicates.
Source text: as §1, §2
Test [4] deals with multivalent forms of VcCBM and SpCBM. Kind of test: Surface plasmon resonance, summary statement for the multivalent forms. The conditions noted are these: read-out: dissociation constants, SPR.
Source text: Tandem-repeat multivalent protein, Vc4CBM, based on the Family 40^31 sialic acid binding domain (CBM) of the nanH gene encoding the sialidase from V. cholerae, was generated using PCR-based cloning techniques as described previously^8. Oligomerisation of the CBM domain from V. cholerae nanH sialidase, and from S. pneumoniae nanA sialidase, using the trimerisation domain from the pseudaminidase protein from Pseudomonas aeruginosa was engineered as follows: the DNA fragments encoding the CBM of V. cholerae sialidase residues 25-216, and that of S. pneumoniae nanA sialidase residues 121-305, respectively, were modified at the 5′ and 3′ termini by PCR amplification using primer pairs (Table 3) to incorporate different restriction sites to link one or two copies of the CBM unit in tandem for subsequent ligation to the gene encoding the trimerization domain from P. aeruginosa pseudaminidase residues 333-438 (PaTD). The resulting fragments were cloned either into an appropriately digested pEHISTEV vector (for VcCBM fragments) or pEGFP-HISTEV vector (for SpCBM fragments) to create constructs designated as VcCBMTD, Vc2CBMTD, SpCBMTD and Sp2CBMTD, respectively (FIG. 1). […] All constructs were propagated in E. coli DH5a cells, and constructs were verified by DNA sequencing, before transforming the expression host E. coli BL21 Gold (DE3) for protein production. […]
In test [5] the target is VcCBMTD (CBM of V. cholerae NanH sialidase, residues 25-216, SEQ ID NO: 2, fused to trimerisation domain of P. aeruginosa pseudaminidase, residues 333-438, SEQ ID NO: 6) (Vibrio cholerae, UniProt A5F7A4). The experiment in a line: Surface plasmon resonance (Biacore T-100): binding to immobilized multivalent, biotinylated α-2,3-sialyllactose-PAA. Particulars: mean ± s.d. of three replicates.
Source text: as §1, §2

Where [6] appears, read: read-out: ka (association ('on') rate constant), 15 °C.
Where [7] appears, read: read-out: ka (association ('on') rate constant), 25 °C.
Setting [8] is: read-out: ka (association ('on') rate constant), 37 °C.
Where [9] appears, read: read-out: kd (dissociation ('off') rate constant), 15 °C.
The mark [10] stands for this setting: read-out: kd (dissociation ('off') rate constant), 25 °C.
Setting [11] is: read-out: kd (dissociation ('off') rate constant), 37 °C.

Among the data in US10363298B2, “Immunomodulatory compounds” (priority 2014, dated 2019) are Kd, kon and koff values, retold here.

Where two headings read alike, the source gives them in different places.

With sialic acid, in test [1], the Kd was about 2500 µM.

As to `CC(=O)N[C@H]1[C@H]([C@H](O)[C@H](O)CO)O[C@@](O[C@H]2[C@@H](O)[C@@H](CO)O[C@@H](O[C@H]3[C@H](O)[C@@H](O)C(O)O[C@@H]3CO)[C@@H]2O)(C(=O)O)C[C@@H]1O` (stereo partly drawn) [α-2,3-sialyllactose], the kon worked out at 1.83e+06 ± 10000 M⁻¹ s⁻¹ in test [2] (setting [6]); 1.73e+06 ± 10000 M⁻¹ s⁻¹ in test [2] (setting [7]); 8.45e+06 ± 50000 M⁻¹ s⁻¹ in test [2] (setting [8]); 540000 ± 10000 M⁻¹ s⁻¹ in test [3] (setting [6]); 3.56e+06 ± 20000 M⁻¹ s⁻¹ in test [3] (setting [7]); 2.98e+06 ± 20000 M⁻¹ s⁻¹ in test [3] (setting [8]). The kon in test [5] (setting [6]) was 2.55e+06 ± 20000 M⁻¹ s⁻¹; in test [5] (setting [7]), 7.24e+06 ± 60000 M⁻¹ s⁻¹; in test [5] (setting [8]), 2.07e+07 ± 540000 M⁻¹ s⁻¹. The koff in test [2] (setting [9]) worked out at 0.00033 ± 1e-05 s⁻¹; in test [2] (setting [10]), 0.0007 ± 1e-05 s⁻¹; in test [2] (setting [11]), 0.00207 ± 1e-05 s⁻¹; in test [3] (setting [9]), 0.00051 ± 1e-05 s⁻¹; in test [3] (setting [10]), 0.0016 ± 1e-05 s⁻¹; in test [3] (setting [11]), 0.00541 ± 4e-05 s⁻¹. Moreover, the koff in test [5] (setting [9]) was 0.0042 ± 2e-05 s⁻¹; in test [5] (setting [10]), 0.0124 ± 0.0001 s⁻¹; in test [5] (setting [11]) it was 0.107 s⁻¹. The Kd in test [4] was under 0.001 µM.
